This experiment concerns rice (Oryza sativa) cultivar Taipei 309 dehulled seeds. The experiment is described as follows: Rice embryogenic callus diameter on MS media with 2.0 mg/l 2,4-D, two weeks. The class given is cell-based. The note with it: for Callus Diameter (mm) + (std. error): two weeks. The source says:
In this experiment, brassinolide and elevated atmospheric pressure improved the initiation of embryogenic cultures in rice (Oryza sativa). Rice, an annual angiosperm, is quite taxonomically distant from the conifers used in previous examples. However, as this example makes clear, brassinosteroids and elevated atmospheric pressure effectively increase embryogenic culture initiation of in a wide variety of species.
In this experiment, four initiation treatments were studied, using explants from mature Japaonica rice seeds (cultivar Taipei 309). The explants were dehulled sterilized seeds. About 400 mature seeds were dehulled and surface sterilized in a 5.25% bleach solution for 25 minutes and then rinsed three times with sterile deionized water. About 70 explants were placed into each of four treatment petri dishes containing solid media. The explants were placed with the embryo side up. The basal media was a Murashige and Skoog (MS) media containing 2.0 mg/l 2,4-D. Plates were wrapped in PARAFILM and cultured in the dark at 27° for two weeks.
Treatment 1, the control treatment, consisted of the above-described basal media, contained no brassinolide, and was cultured at atmospheric pressure. Treatment 2 contained the basal media and was cultured at 1.5 atm of pressure. Treatment 3 contained basal to which 0.1 μM brassinolide was added and was cultured at normal atmospheric pressure. Treatment 4 contained basal media to which 1 μM brassinolide was added and was cultured at atmospheric pressure.
After two weeks, embryogenic callus had developed on most of the explants. The embryogenic callus formed in spherical formations around the embryo. During culture, the scutellum elongated and the embryogenic calli formed masses around the base of the scutellum, covering and obscuring the rest of the embryo. Initiation was scored by measuring the diameter of the embrygenic callus on each explant. A larger callus contains more somatic embryos and thus has a greater potential to supply viable embryos for subsequent regeneration of whole plants. Callus size was measured by observing callus under a dissecting scope fitted with an ocular measurement device allowing accurate measurements to 0.1 mm.

`CC(C)[C@H](C)[C@@H](O)[C@H](O)[C@@H](C)[C@H]1CC[C@H]2[C@@H]3COC(=O)[C@H]4C[C@H](O)[C@H](O)C[C@]4(C)[C@H]3CC[C@]12C` [brassinolide]: the “average callus size vs control” value is reported as “significantly increased” (0.1 μM brassinolide) and “did not increase callus size” (1.0 μM brassinolide). Besides, the “Callus Diameter (mm) + (std. error)” value is, setting by setting: (+0.1 μM Brassinolide) 4.70 (0.13) mm; (+1.0 μM Brassinolide) 4.19 (0.12) mm.

The record behind these values is patent US6492174B1, “Methods of initiating embryogenic cultures in plants” (Institute of Paper Science & Technology, priority 2000, dated 2002).
